Measured values as given in patent US8748485B2, “Compound and medical use thereof” (Ono Pharmaceuticals Co., Ltd., priority 2010, dated 2014).

What was measured:
[1] = Kinetic study in dogs (oral administration, plasma levodopa); settings: dog, in vivo, po, 3 mg/kg
Description: The relationship between the blood concentration of levodopa and side effects in patients who take levodopa has been gradually elucidated. […] In order to reduce the number of doses of levodopa and avoid side effects such as dyskinesia and wearing-off in patients who take levodopa, it is necessary to maintain the blood concentration of levodopa within a therapeutic range as long as possible.
These levodopa prodrugs are prodrugs containing an ester bond, and therefore, it is considered that among a number of enzymes, carboxyesterase plays the most important role in the process of producing levodopa by metabolizing the compound after the compound is administered in vivo. Therefore, as an animal species to be used for performing a kinetic study, dogs in which the organ distribution of carboxyesterase is most similar to that of humans were selected as subjects for evaluation.
The thus obtained drug solution was administered by gavage through a gastric tube into the stomach of dogs (male beagle dogs) which were fasted from the day before the administration. At 15 and 30 minutes, and 1, 2, 4, 6, and 8 hours after administration of the drug solution, 1 mL of blood was collected from a cephalic vein with a heparinized syringe. Immediately after the collection, the collected blood was centrifuged in a desktop centrifuge at 14500 rpm for 45 seconds. Then, acetonitrile containing 0.1125% formic acid was added to the thus obtained plasma in an amount as twice as large as the volume of the plasma, followed by stirring, and then, the resulting sample was stored at −20° C. until measurement.
The sample was thawed on the measurement day, followed by stirring and centrifugation at 13000 rpm for 3 minutes (at 4° C.). The resulting supernatant was filtered and the filtrate was analyzed by LC/MS/MS. The analysis was performed by LC/MS/MS under the following conditions.
Measurement Apparatus: API-5000 (manufactured by Applied Biosystems, Inc.)
Analytical column: CAPCELL PAK CR (1:4) (4.6 mm, I.D.×250 mm, 5 μm)
Analytical column temperature: 40° C.
Mobile phase: A: 5 mM ammonium formate (pH 3.9), B: acetonitrile (A/B=17/3)
Detection (levodopa): m/z (precursor): 196.19, m/z (product): 134.99
DP (Declustering Potential): −60
CE (Collision Energy): −25
CXP (Collision Cell Exit Potential): −17
Incidentally, the numerical value in the column which indicates the dose expressed in terms of levodopa refers to a dose equivalent to that of levodopa.

[2] = Kinetic study in dogs (combination use with dopa decarboxylase inhibitor carbidopa); type: in vivo, dogs (male beagle dogs); settings: dogs given carbidopa 60 mg/kg; oral Example 5 18.6 mg/kg (6 mg/kg expressed in terms of levodopa)
Experimental: (3) Kinetic Study in Dogs (Combination Use with Dopa Decarboxylase Inhibitor (DCI)) […] As the DCI, carbidopa was used. […] The preparation of an analytical sample and analysis were carried out according to the method described in the same section in the Biological Example 1(1).

[3] = Simulation of kinetics in human blood on basis of results of kinetic study in dogs; settings: simulated in humans versus SINEMET 100 mg tablet
Experimental: (4) Simulation of Kinetics in Human Blood on Basis of Results of Kinetic Study in Dogs
For the purpose of validating whether or not the effect of releasing levodopa over a long period of time of the compound of the present invention observed in the kinetic study in dogs is also observed in humans, a simulation of kinetics in human blood was carried out on the basis of the results of the kinetic study in dogs described in the above section (3).
By using the values obtained in the kinetic study in dog blood in the above section (3), a prediction model that simulates the kinetics in human blood was constructed.
Specifically, the blood concentration-time profile of levodopa or the compound of the present invention obtained in the kinetic study in dogs was input into Phoenix WinNonlin version 6.1 (Pharsight Corporation), which is kinetic analysis software, and the fitting of the plasma concentration of levodopa was carried out, whereby a prediction model that simulates the blood kinetics of levodopa was constructed.
Into this prediction model, the values of blood kinetics when a levodopa preparation was administered to humans described in the literature (Br. J. Clin. Pharm., 1989, Vol. 28, pp. 61-69, D. R. C. Robertson et al.) were input, and the kinetics of the compound of the present invention in human blood was simulated. […]

p53R2 = assay: Mutagenicity assay using mammalian cells (NESMAGET method); type: cell-based
Experimental: In the treatment of Parkinson's disease and/or Parkinson's syndrome, there is a possibility that a levodopa prodrug is continued to be taken over a long period of time of several years to several decades. Therefore, an evaluation was carried out as to whether or not the compound of the present invention has mutagenicity by a mutagenicity assay using mammalian cells.
A mutagenicity assay using mammalian cells was carried out as a commissioning test to be undertaken by Nissin Foods Holdings Co., Ltd. The present method also called NESMAGET method is a method in which the expression of p53R2 which is a DNA repair gene is detected by luciferase activity, and the specific experimental technique is described in JP-A-2005-000024 and Japanese Patent No. 4243716. In the determination as to whether or not the result of this test was positive, the luciferase activity of p53R2 in the case of a vehicle control (0.3% dimethylsulfoxide) was taken as 100%, and a concentration at which a relative luciferase activity exceeded 200% was determined to be “concentration at which mutagenicity was determined to be positive”.

[4] = tested on: rat model injected with 6-hydroxydopamine into the medial forebrain bundle; assay: Rotation test in model injected with 6-hydroxydopamine into medial forebrain bundle; type: in vivo, rats (male Crl:CD(SD)IGS); settings: 6-OHDA rats
Description: In the experiment, male Crl:CD(SD)IGS rats (Charles River Japan, Inc.) supplied at 5 weeks of age were used. The rats were housed in Econ cages (4 or less rats per cage) and were raised by giving free access to solid feed CRF-1 (Oriental Yeast Co., Ltd.) and tap water (in a water bottle) until they were subjected to the experiment. When acclimation after shipping was completed, each of the Crl:CD(SD)IGS rats at 6 weeks of age was anesthetized with pentobarbital sodium (Somnopentyl (registered trademark) injectable solution, 35 mg/kg, intraperitoneal injection). Subsequently, for the purpose of preventing damage to norepinephrine neurons by 6-hydroxydopamine (6-OHDA), desipramine (25 mg/kg) was intraperitoneally injected, and the rat was held and fixed by a brain fixation device. A small bone window was opened with a hand drill at a desired site, and 6-OHDA was injected into the medial forebrain bundle according to the brain atlas of Paxinos and Watson using a 30 G cannula (Brain Science Idea. Co. Ltd.) with a needle tip cut at an angle of 45° (site of injection: A=−4.5 mm, L=+1.2 mm, and V=−7.8 mm with respect to the bregma, injection amount: 8 μg/4 μL/8 min/site in each case). […] Thereafter, the burr hole was closed with an instant glue, and then sutured and disinfected with iodine tincture. […] In a rotation test, a device configured such that a black plastic circular cylinder having a diameter of 30 cm and a height of 35 cm was placed upright in a black-painted bowl having an opening diameter of 35 cm and a bottom diameter of 17 cm was used (the height of the curve from the bottom of the bowl to the bottom edge of the cylinder was set to 7 cm). The rat was placed in the device (one rat per device) and acclimated to the device for 30 minutes. Thereafter, a test substance was administered to the rat, and the rat was returned to the same device and videotaped. […] As for the number of rotations, a 360° rotation in one direction was determined to be one rotation. In the case where the direction (body's direction of movement or movement direction) was changed during rotation, the rotation was not included in the count. […] Incidentally, in each case, benserazide which is a dopa decarboxylase inhibitor (8 mg/kg) was orally administered concomitantly. […] In addition, the respective values are each a mean of the values obtained using 11 rats in each group and its standard error.

CC(C)(OC(=O)c1ccccc1)C(=O)Oc1ccc(C[C@H](N)C(=O)O)cc1OC(=O)C(C)(C)OC(=O)c1ccccc1.Cl [Example 5, (2S)-2-Amino-3-(3,4-bis((2-(benzoyloxy)-2-methylpropanoyl)oxy)phenyl)propanoic acid hydrochloride]
AUC (area under the blood concentration-time curve of levodopa) [1]: 0.89 μg^+ hr/mL | Cmax/C6 hr (ratio of maximum plasma concentration and plasma concentration at 6 hours after oral administration, levodopa) ([1]; male, beagle): 8.0 | time after administration at which plasma levodopa reached Cmax [2]: 4 h | time in the therapeutic range in humans relative to the currently available levodopa preparation [3]: about 3.4 times | Mutagenicity assay (NESMAGET) Concentration at which mutagenicity was determined to be positive (p53R2; concentration at which relative luciferase activity of p53R2 exceeded 200% (vehicle control 0.3% dimethylsulfoxide = 100%)): >200 µg/mL | determination of mutagenicity (p53R2; positive = relative luciferase activity of p53R2 exceeded 200%, compound of the present invention up to 200 μg/mL): mutagenicity was not observed | lapse from administration after which the number of rotations began to increase ([4]; oral Example 5 100 mg/kg expressed in terms of levodopa, benserazide 8 mg/kg): ≥ 60 min | time after administration at which the number of rotations reached a maximum value ([4]; oral, levodopa 30 mg/kg or Example 5 100 mg/kg expressed in terms of levodopa, benserazide 8 mg/kg): 140 min | maximum value of the number of rotations per 10 minutes ([4]; oral, levodopa 30 mg/kg or Example 5 100 mg/kg expressed in terms of levodopa, benserazide 8 mg/kg concomitantly, N=11): ≥ 90 times
